Among the test systems are CCRF-CEM leukemia; EKVX NSCLC; HL-60(TB) leukemia; NCI-H522 lung; SK-MEL-28 melanoma; SW-620 colon; T-47D breast; HS 578T breast.
What all share (experiment): NCI-60 cell line screen, 48 h

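Five concentrations, 48 hours, 96-well plates. Here, GI50 denotes the concentration required for 50% inhibition of growth. At the TGI there is no net growth.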

On to `CCN1CCCCCCCCCC(=N/O)/C(=N\O)C1`, for which the TGI with CCRF-CEM leukemia, in the assay on EKVX NSCLC, in the assay with HL-60(TB) leukemia, with NCI-H522 lung, with SK-MEL-28 melanoma and with SW-620 colon was greater than 100 µM in each case. For the same compound, in the assay on T-47D breast, the TGI was greater than 100 µM.

`O=C(CC(O)(C(F)(F)F)C(F)(F)F)c1cccs1`: the TGI in the assay on CCRF-CEM leukemia, in the assay on HL-60(TB) leukemia, in the assay on HS 578T breast, with NCI-H522 lung, with SK-MEL-28 melanoma and with SW-620 colon was greater than 10 µM throughout. Moreover, the TGI in the assay with T-47D breast is greater than 10 µM.

Regarding `CC(=O)NC(CCc1ccc(Cl)c(Cl)c1)c1cccc(O)c(=O)c1` (stereo unspecified), the GI50 with CCRF-CEM leukemia is 0.398 µM; with HL-60(TB) leukemia, 0.833 µM; with HS 578T breast, 2.61 µM; in the assay with NCI-H522 lung, 0.488 µM; in the assay with SK-MEL-28 melanoma, 1.07 µM; in the assay with SW-620 colon, 0.531 µM. The GI50 with T-47D breast is 1.1 µM. In addition, the TGI stood at 16.3 µM in the assay with CCRF-CEM leukemia; 5.3 µM with HL-60(TB) leukemia; 32.5 µM in the assay on HS 578T breast; 11.9 µM with NCI-H522 lung; 12.3 µM with SK-MEL-28 melanoma; 23.7 µM in the assay with SW-620 colon. The compound also showed a TGI with T-47D breast of 38.6 µM.

Take `N=C1C(c2nc3ccccc3c(=O)[nH]2)=C(O)CN1c1cccc(Cl)c1`: the GI50 was 2.88 µM in the assay with CCRF-CEM leukemia; 8.29 µM in the assay on EKVX NSCLC; 2.34 µM in the assay with HL-60(TB) leukemia; 2.79 µM in the assay on HS 578T breast; 4.57 µM with NCI-H522 lung; greater than 22.3 µM in the assay on SK-MEL-28 melanoma. For the same compound, the GI50 in the assay on SW-620 colon is 3.28 µM. In addition, the TGI with CCRF-CEM leukemia was greater than 100 µM; with EKVX NSCLC, greater than 100 µM; in the assay with HL-60(TB) leukemia, greater than 100 µM; with HS 578T breast, 12.3 µM; in the assay on NCI-H522 lung, greater than 100 µM; in the assay with SK-MEL-28 melanoma it was greater than 100 µM. In the assay with SW-620 colon, this compound gave a TGI greater than 100 µM.

For the compound `Cn1ccc(S(=O)(=O)N2CCC[C@H](Nc3nccc(-c4c(-c5cccc(O)c5)nc5occn45)n3)C2)n1`, the GI50 is 4.47 µM in the assay on CCRF-CEM leukemia; 10.8 µM with HL-60(TB) leukemia; 7.57 µM in the assay with HS 578T breast; 13 µM in the assay on NCI-H522 lung; 0.0938 µM with SK-MEL-28 melanoma; 15.9 µM in the assay with SW-620 colon. The GI50 in the assay with T-47D breast was 18.5 µM. In addition, the TGI in the assay with CCRF-CEM leukemia was greater than 100 µM; in the assay on HL-60(TB) leukemia it was 32.3 µM; in the assay with HS 578T breast it was 93.5 µM; with NCI-H522 lung, 36.4 µM; in the assay on SK-MEL-28 melanoma, 20.5 µM; in the assay with SW-620 colon, greater than 64.2 µM. The same compound showed a TGI in the assay on T-47D breast of 70.5 µM.

With `Cc1c(Br)c(Br)c2c3c1nc(N1CCNCC1)n3CCC2`, the GI50 with EKVX NSCLC was 1.9 µM; with HL-60(TB) leukemia, 2.16 µM; with HS 578T breast, 2.45 µM; with NCI-H522 lung it was 1.49 µM; in the assay on SK-MEL-28 melanoma, 1.79 µM; with SW-620 colon it was 1.55 µM. Also, the GI50 in the assay on T-47D breast is 2.35 µM. For the same compound, the TGI in the assay with EKVX NSCLC turned out to be 4.32 µM; in the assay with HL-60(TB) leukemia, 5.31 µM; in the assay on HS 578T breast, 6.5 µM; with NCI-H522 lung it was 3.14 µM; with SK-MEL-28 melanoma, 3.39 µM; in the assay with SW-620 colon it was 3.09 µM. In addition, the TGI in the assay on T-47D breast came to 6.36 µM.

Take `CN(C)C/C=C/C(=O)Nc1ccc(C(=O)Nc2cccc(Nc3ncc(Cl)c(-c4c[nH]c5ccccc45)n3)c2)cc1`: the GI50 is less than 0.01 µM in the assay on CCRF-CEM leukemia; 0.03 µM in the assay on EKVX NSCLC; 0.0363 µM in the assay on HS 578T breast; 0.0172 µM in the assay on NCI-H522 lung; 0.0215 µM in the assay on SK-MEL-28 melanoma; 0.031 µM in the assay with SW-620 colon. In addition, the GI50 with T-47D breast was 0.0284 µM. The TGI was greater than 100 µM in the assay with CCRF-CEM leukemia; 0.283 µM in the assay on EKVX NSCLC; 0.195 µM in the assay on HS 578T breast; 0.094 µM in the assay on NCI-H522 lung; 0.532 µM in the assay on SK-MEL-28 melanoma; 11.3 µM in the assay on SW-620 colon. In addition, the TGI in the assay on T-47D breast is greater than 100 µM.

For `O=C1NC(c2cccc3ccccc23)Nc2ccc(Cl)cc21` (stereo unspecified), the TGI amounted to 0.0512 µM in the assay with CCRF-CEM leukemia; 83.3 µM with EKVX NSCLC; 0.000441 µM with HL-60(TB) leukemia; 20.6 µM in the assay with SK-MEL-28 melanoma; 17.2 µM with SW-620 colon; 68.5 µM in the assay with T-47D breast. Besides, in the assay on EKVX NSCLC, the GI50 was 0.0129 µM.

As for `COc1ccc(/C=C/C(=O)C(=O)/C=C/c2ccc(OC)c(OC)c2)cc1OC`, the GI50 with CCRF-CEM leukemia was 2.22 µM; in the assay with EKVX NSCLC, 5 µM; with HL-60(TB) leukemia it was 2.36 µM; in the assay with HS 578T breast it was 2.71 µM; in the assay with NCI-H522 lung, 3.75 µM; in the assay with SW-620 colon it was 1.08 µM. Further, in the assay with T-47D breast, the GI50 was 2.26 µM. Also, the TGI was 20 µM with CCRF-CEM leukemia; greater than 100 µM in the assay on EKVX NSCLC; 16.9 µM in the assay on HL-60(TB) leukemia; greater than 100 µM with HS 578T breast; 19.3 µM in the assay on NCI-H522 lung; 3.31 µM in the assay with SW-620 colon. The compound further gave a TGI in the assay on T-47D breast greater than 100 µM.

Consider `Cc1ccc2c(-c3ccnc(Nc4cccc(C(F)(F)F)c4)n3)c(-c3ccccc3)nn2n1`, for which the GI50 in the assay on CCRF-CEM leukemia was 7.77 µM; with EKVX NSCLC, 10.5 µM; in the assay on HS 578T breast, 7.13 µM; with NCI-H522 lung it was 5.73 µM; with SK-MEL-28 melanoma, greater than 15.4 µM; with SW-620 colon, 7.81 µM. In addition, the GI50 in the assay on T-47D breast is 6.95 µM. Also, the TGI is greater than 25 µM with CCRF-CEM leukemia; greater than 25 µM with EKVX NSCLC; greater than 25 µM with HS 578T breast; greater than 14.7 µM with NCI-H522 lung; greater than 25 µM in the assay on SK-MEL-28 melanoma; greater than 22.5 µM with SW-620 colon. This compound had a TGI in the assay on T-47D breast greater than 23.7 µM.

As to `CN1CCN(CCCCCOc2cc(O)c3c(=O)cc(-c4ccccc4)oc3c2)CC1`, the GI50 with EKVX NSCLC is 10.2 µM; in the assay with HL-60(TB) leukemia, 3.04 µM; with HS 578T breast, 18.1 µM; in the assay with NCI-H522 lung, 2.59 µM; in the assay on SK-MEL-28 melanoma it was 2.22 µM; in the assay with SW-620 colon, 2.61 µM. For the same compound, the TGI was greater than 100 µM in the assay on EKVX NSCLC; 8.63 µM in the assay with HL-60(TB) leukemia; 51.9 µM in the assay with HS 578T breast; 6.71 µM in the assay with NCI-H522 lung; 4.25 µM in the assay with SK-MEL-28 melanoma; 7.53 µM in the assay with SW-620 colon.

These data come from PubChem BioAssay (NCI).
